Assay results: patent US6906205B2, “Spiro and dispiro 1,2,4-trioxolane antimalarials” (Medicines for Malaria Venture MMV, priority 2002, dated 2005)
Values after ≈ are worked out from the molar mass of the structure shown.

How the values were obtained:
[1] = tested on: P. falciparum K1 strain (Thailand resistant to chloroquine); assay: semiautomated microdilution assay, [3H]-hypoxanthine incorporation, K1 strain; type: cell-based, Plasmodium falciparum; conditions: for IC50 (ng/ml) K1: K1 strain, 72 h incubation; for IC50: Plasmodium falciparum, K1, 72 h, read-out: IC50 (ng/ml) K1
Experimental: (§1) Various OZ compounds were tested by the semiautomated microdilution assay against intraerythrocytic forms of Plasmodium falciparum derived from asynchronous stock cultures.
(§2) Fifty percent inhibitory concentration (IC50) were estimated by Logit regression analysis.

[2] = tested on: P. falciparum NF54 strain (sensitive to standard antimalarials); assay: semiautomated microdilution assay, [3H]-hypoxanthine incorporation, NF54 strain; type: cell-based, Plasmodium falciparum; conditions: for IC50 (ng/ml) NF54: NF54 strain, 72 h incubation; for IC50: Plasmodium falciparum, NF54, 72 h, read-out: IC50 (ng/ml) NF54
Experimental: as §1, §2

[3] = tested on: ANKA strain of P. berghei; assay: single dose STI in vivo screen in infected mice; design: species or system Plasmodium berghei; conditions: for Activity (%) po / Activity (%) sc / Activity (%) SSVpo: percent reduction in parasitemia day 3 post-infection, mice; for Activity (%) po / Survival (days) po: single 10 mg/kg po in 3% ethanol and 7% Tween 80; for Activity (%) sc / Survival (days) sc: single 10 mg/kg sc in 3% ethanol and 7% Tween 80; for Survival (days) po / Survival (days) sc / Survival (days) SSVpo: untreated control 5.6 ± 0.3; for Activity (%) SSVpo: single po dose in standard suspending vehicle (SSV); for Survival (days) SSVpo: single po dose in SSV
Procedure, shortened: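 Groups of 3-5 Moro SPF or NMRI mice infected with the ANKA strain of P. berghei received a single dose of trioxolane on day one post-infection. The compound was given in 3% ethanol and 7% Tween 80 or in SSV (0.5% w/v CMC, 0.5% v/v benzyl alcohol, 0.4% v/v Tween 80, 0.9% w/v sodium chloride in water). Antimalarial activity was scored as percent reduction in parasitemia on day three and as survival time versus untreated controls. Survival to day 30 counted as cure.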

| SMILES | IC50 (ng/ml) K1 [1] [ng/mL] | IC50 (ng/ml) NF54 [2] [ng/mL] | Activity (%) po [3] [%] | Activity (%) sc [3] [%] | Survival (days) po [3] [days] | Survival (days) sc [3] [days] | Activity (%) SSVpo [3] [%] | Survival (days) SSVpo [3] [days] | IC50 [1] [ng/mL] | IC50 [2] [ng/mL] |
| --- | --- | --- | --- | --- | --- | --- | --- | --- | --- | --- |
| O=C(OC1CCC2(CC1)OOC1(O2)C2CC3CC(C2)CC1C3)c1ccccc1 (centres unmarked) [OZ74] | 2.3 (≈ 5.98 nM) | 3.5 (≈ 9.1 nM) | 63 | 99.97 | 6.3 | 10.0 |  |  |  |  |
| N#CC1(c2ccc(Cl)c(Cl)c2)CCC2(CC1)OOC1(O2)C2CC3CC(C2)CC1C3 (centres unmarked) [OZ75] | 2.4 (≈ 5.53 nM) | 4.3 (≈ 9.9 nM) | 77 | 5 | 7.3 | 5.0 |  |  |  |  |
| COC1(c2ccc(F)cc2)CCC2(CC1)OOC1(O2)C2CC3CC(C2)CC1C3 (centres unmarked) [OZ77] | 1.4 (≈ 3.6 nM) | 2.2 (≈ 5.66 nM) | 99.9 | 98 | 9.0 | 8.3 | 74 | 6.0 |  |  |
| CC(=O)OCC(=O)N1CCC2(CC1)OOC1(O2)C2CC3CC(C2)CC1C3 (centres unmarked) [OZ82] | 0.48 (≈ 1.31 nM) | 1.2 (≈ 3.28 nM) | 91 | 79 | 7.3 | 7.0 |  |  |  |  |
| c1ccc2c(c1)CCCC21OOC2(O1)C1CC3CC(C1)CC2C3 (centres unmarked) [OZ84] | 1.4 (≈ 4.48 nM) | 2.1 (≈ 6.72 nM) | 92 | 99.99 | 7.7 | 14.7 |  |  |  |  |
| c1ccc2c(c1)CCC1(C2)OOC2(O1)C1CC3CC(C1)CC2C3 (centres unmarked) [OZ85] | 0.86 (≈ 2.75 nM) | 1.8 (≈ 5.76 nM) | 34 | 99.7 | 6.0 | 8.3 |  |  |  |  |
| O=S(=O)(c1ccc(F)cc1)N1CCC2(CC1)OOC1(O2)C2CC3CC(C2)CC1C3 (centres unmarked) [OZ86] | 0.80 (≈ 1.89 nM) | 2.0 (≈ 4.72 nM) | 77 | 99.9 | 6.7 | 11.3 |  |  |  |  |
| O=C(CCl)N1CCC2(CC1)OOC1(O2)C2CC3CC(C2)CC1C3 (centres unmarked) [OZ87] | 3.6 (≈ 10.5 nM) | 4.4 (≈ 12.9 nM) | 22 | 53 | 5.7 | 6.0 |  |  |  |  |
| O=C(OCCC1CCC2(CC1)OOC1(O2)C2CC3CC(C2)CC1C3)c1ccc([N+](=O)[O-])cc1 (centres unmarked) [OZ88] | 5.7 (≈ 12.5 nM) | 4.2 (≈ 9.18 nM) | 62 | 99.1 | 6.0 | 11.7 |  |  |  |  |
| OCCC1CCC2(CC1)OOC1(O2)C2CC3CC(C2)CC1C3 (centres unmarked) [OZ89] |  |  | 94 | 99.8 | 7.3 | 8.7 | 89 | 6.7 | 0.3 (≈ 0.973 nM) | 0.75 (≈ 2.43 nM) |
| CC1(O)CCC2(CC1)OOC1(O2)C2CC3CC(C2)CC1C3 (centres unmarked) [OZ90] |  |  | 89 | 99 | 7.0 | 8.0 | 95 | 7.0 | 0.44 (≈ 1.49 nM) | 0.84 (≈ 2.85 nM) |
| CC1(C)C2CCC1(CS(=O)(=O)N1CCC3(CC1)OOC1(O3)C3CC4CC(C3)CC1C4)C(=O)C2 (centres unmarked) [OZ91] | 1.4 (≈ 2.92 nM) | 0.42 (≈ 0.876 nM) | 20 | 85 | 5.7 | 7.3 | 0 | 6.0 |  |  |
